Measured values taken from publication PMC4929566, “The metabolome of [2-^14C](−)-epicatechin in humans: implications for the assessment of efficacy, safety, and mechanisms of action of polyphenolic bioactives” (Scientific Reports, 2016).
“And” between values parts separate entries of the source, which are not always exact repeats. Equal entries are not always repeated.

Assay: Metabolite profiling and quantification in urine (HPLC-MS2 with on-line radioactivity detector)
Format: in vivo, humans
Conditions: human
Experimental: The study was a single-center, open-label, and non-randomized study with two distinct elements: a run-in phase to establish a more defined dietary background of dietary flavanols and procyanidins and the subsequent ^14C-EC ADME study (Fig. 1B). Participants (n = 12) were enrolled in the run-in phase (day –17 to day –4) and asked to supplement their daily diet for 14 days with a commercially available flavanol-containing cocoa-based drink (250 mg cocoa flavanols; 40 mg of EC). This was followed by a 4-day period (day –4 to 0) of a low-flavanol diet. One day (study day -1) prior to the initialization of the ^14C-EC ADME study, all eligible participants were accommodated under controlled conditions at a metabolic research facility (Covance Clinical Pharmacology Inc., Wisconsin) until completion of the study. Based on the compliance of the first part of the study, 8 participants were selected to participate in the ^14C-EC ADME study. During the ^14C-EC ADME study (Fig. 1B.), volunteers received a low-flavanol, standardized high-fiber diet, and were encouraged to maintain an adequate level of hydration (water ad libitum). Volunteers were asked to fast for 8 h before the initiation of the study and for at least 4 h after the intake of the ^14C-EC test drink (water ad libitum). Venous blood samples were taken using Vacutainer collection tubes, containing potassium EDTA at 0 h (just prior to ^14C-EC ingestion), and at 0.25, 0.5, 1, 1.5, 2, 2.5, 3, 4, 6, 8, 10, 12, 16, 24, 36, and 48 h after test drink consumption. Plasma was obtained by whole blood centrifugation at 2000 × g for 15 min at 5 °C, separated into aliquots and stored at −80 °C until analysis. All urine and feces from the time just prior to the consumption of the test drink were collected at different time intervals for radioactivity and metabolite profiling. Clinical parameters and laboratory evaluations of participants were assessed at screening, on study day –1, and after completing the study, as detailed in Supplementary Methods.
Samples were processed as described previously[18] and analyzed by HPLC-MS^2 in conjunction with an on-line HPLC-radioactivity monitor as described in SI Materials and Methods. Identification of metabolites involved comparing the retention time with authentic standards and MS^2 fragmentation patterns (Supplementary Methods). Quantification of metabolites in urine was based on HPLC radioactivity peak area (limit of quantification: 10^3 dpm). Due to the low levels of radioactivity, quantification in plasma was based on targeted HPLC-MS^2 using standard curves obtained with authentic standards (Supplementary Methods).
HPLC-MS identifications of radiolabeled [2-14C](−)-epicatechin metabolites in urine Urine was analyzed with radioactivity and mass spectrometry (MS) detection using a 250 mm x 4.6 mm i.d. 5 µm Luna Phenyl-Hexyl column (Phenomenex, Macclesfield, UK) […]
formic acid. Metabolite identification was performed by 1) co-chromatography of metabolites with reference compounds and a comparison of their MS fragmentation patterns 2, 2) by comparing m/z fragmentation patterns with earlier in-house observed […]
patterns to databases of metabolites reported in earlier polyphenol feeding studies5-7.
Supplementary Table S2, which also provides information on the MSI MI (Metabolite Standards Initiative – Metabolites Identification) level, a confidence level for identification where level 1 stands for fully elucidated (i.e., by comparison with a standard) and level 2 for a well characterized, but not yet fully structurally elucidated 8

Compound: Oc1cc(O)c2c(c1)O[C@H](c1ccc(O)c(O)c1)[C@H](O)C2 [^14C-EC, [2-^14C](−)-epicatechin]
- Ingested 14C-EC absorbed via the colon / lower intestine (from urinary RFM excretion): ≈ 70% and 70%
- Ingested 14C-EC absorbed from the small intestine (from urinary SREM excretion): 20%
